EP0975604B1, “PYRIDAZINONES AS INHIBITORS OF CYCLOOXYGENASE-2” (MERCK FROSST CANADA & CO., priority 1997, dated 1998)

Assays:
COX-2 [1] = target: T1, COX-2 (Homo sapiens, UniProt P35354); experiment: Whole cell assay for COX-2 using CHO transfected cell line (CHO [hCOX-2]); assay type: cell-based; conditions: CHO[hCOX-2] cells, 10 µM AA, PGE2 synthesis
T1 construct: endogenous in cells; host or cells: fresh heparinized human whole blood from volunteers, induced with LPS
T1 sequence (P35354 18-604): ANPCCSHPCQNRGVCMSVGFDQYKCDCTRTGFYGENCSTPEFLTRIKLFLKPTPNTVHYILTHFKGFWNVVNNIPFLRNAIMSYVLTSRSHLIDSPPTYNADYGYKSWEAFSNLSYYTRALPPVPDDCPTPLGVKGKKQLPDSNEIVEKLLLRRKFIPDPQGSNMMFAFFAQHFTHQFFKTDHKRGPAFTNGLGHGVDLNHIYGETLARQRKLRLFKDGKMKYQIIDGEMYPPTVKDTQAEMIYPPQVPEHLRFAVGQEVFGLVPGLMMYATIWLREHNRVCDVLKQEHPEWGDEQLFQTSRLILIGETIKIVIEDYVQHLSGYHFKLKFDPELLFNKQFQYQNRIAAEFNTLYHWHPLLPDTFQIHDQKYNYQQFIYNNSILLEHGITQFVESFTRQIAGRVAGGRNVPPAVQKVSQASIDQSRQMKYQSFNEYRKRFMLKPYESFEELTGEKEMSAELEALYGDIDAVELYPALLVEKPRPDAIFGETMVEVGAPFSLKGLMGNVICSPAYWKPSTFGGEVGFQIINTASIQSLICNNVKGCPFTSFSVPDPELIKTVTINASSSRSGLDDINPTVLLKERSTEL
Description: Chinese hamster ovary (CHO) cell lines which have been stably transfected with an eukaryotic expression vector pCDNAIII containing either the human COX-1 or COX-2 cDNA's are used for the assay. These cell lines are referred to as CHO [hCOX-1] and CHO [hCOX-2], respectively. […] Cells (0.3 x 10^6 cells in 200 µl) are preincubated with 3 µl of the test drug or DMSO vehicle for 15 min at 37°C. […] Cells are then challenged in the presence or absence of drug with the AA/HBSS solution to yield a final concentration of 0.5 µM AA in the CHO[hCOX-1] assay and a final concentration of 10 µM AA in the CHO[hCOX-2] assay. […] The samples are centrifuged at 300 x g at 4°C for 10 min, and an aliquot of the clarified supernatant is appropriately diluted for the determination of PGE2 levels using an enzyme-linked immunoassay for PGE2 (Correlate PGE2 enzyme immunoassay kit, Assay Designs, Inc.). Cyclooxygenase activity in the absence of test compounds is determined as the difference in PGE2 levels of cells challenged with arachidonic acid versus the PGE2 levels in cells mock-challenged with ethanol vehicle. Inhibition of PGE2 synthesis by test compounds is calculated as a percentage of the activity in the presence of drug versus the activity in the positive control samples.
(§1) In the assay, inhibition is determined by measuring the amount of prostaglandin E2 (PGE2) synthesized in the presence of arachidonic acid, cyclooxygenase-1 or cyclooxygenase-2 and a putative inhibitor.

COX-2 [2] = target: T1, COX-2; experiment: Human whole blood assay, COX-2 (LPS-induced PGE2 production); assay type: cell-based; conditions: 24 hours at 37°C, read-out: COX-2 (IC50 µM) HWB
From the text: (§2) As well, platelets in whole blood contain a large amount of the COX-1 enzyme. Immediately following blood clotting, platelets are activated through a thrombin-mediated mechanism. This reaction results in the production of thromboxane B2 (TxB2) via activation of COX-1. Thus, the effect of test compounds on TxB2 levels following blood clotting can be examined and used as an index for COX-1 activity. Therefore, the degree of selectivity by the test compound can be determined by measuring the levels of PGE2 after LPS induction (COX-2) and TxB2 following blood clotting (COX-1) in the same assay.
Fresh blood is collected in heparinized tubes by venipuncture from both male and female volunteers. The subjects have no apparent inflammatory conditions and have not taken any NSAIDs for at least 7 days prior to blood collection. Plasma is immediately obtained from a 2mL blood aliquot to use as blank (basal levels of PGE2).

COX-1 [3] = target: T2, COX-1 (Homo sapiens, UniProt P23219); experiment: Assay of COX-1 activity from U937 cell microsomes; assay type: biochemical; parameters: endogenous in cells; host or cells: U937 cells, 100,000 x g microsomal pellet; conditions: PGE2, read-out: COX-1 (IC50 µM) U-937
T2 sequence (P23219 24-599): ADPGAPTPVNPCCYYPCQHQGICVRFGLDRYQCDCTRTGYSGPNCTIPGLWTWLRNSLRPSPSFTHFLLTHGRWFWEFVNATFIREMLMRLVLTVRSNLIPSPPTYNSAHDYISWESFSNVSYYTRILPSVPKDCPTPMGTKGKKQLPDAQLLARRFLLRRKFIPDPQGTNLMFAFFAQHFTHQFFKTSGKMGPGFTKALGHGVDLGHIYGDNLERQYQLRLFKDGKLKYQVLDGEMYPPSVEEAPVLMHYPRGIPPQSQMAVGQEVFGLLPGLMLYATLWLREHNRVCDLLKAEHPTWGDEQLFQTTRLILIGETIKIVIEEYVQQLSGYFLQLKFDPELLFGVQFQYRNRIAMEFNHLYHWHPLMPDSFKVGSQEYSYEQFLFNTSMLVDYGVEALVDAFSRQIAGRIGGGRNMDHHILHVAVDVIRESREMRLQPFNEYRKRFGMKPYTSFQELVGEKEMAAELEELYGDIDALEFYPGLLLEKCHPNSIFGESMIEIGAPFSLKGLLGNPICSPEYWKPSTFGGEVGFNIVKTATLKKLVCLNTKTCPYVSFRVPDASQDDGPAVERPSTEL
Description: U 937 cells are pelleted by centrifugation at 500 x g for 5 min and washed once with phosphate-buffered saline and repelleted. Cells are resuspended in homogenization buffer consisting of 0.1 M Tris-HCl, pH 7.4, 10 mM EDTA, 2 µg/ml leupeptin, 2 µg/ml soybean trypsin inhibitor, 2 µg/ml aprotinin and 1 mM phenyl methyl sulfonyl fluoride. The cell suspension is sonicated 4 times for 10 sec and is centrifuged at 10,000 x g for 10 min at 4° C. The supernatant is centrifuged at 100,000 x g for 1 hr at 4 °C. The 100,000 x g microsomal pellet is resuspended in 0.1 M Tris-HCl, pH 7.4, 10 mM EDTA to approximately 7 mg protein/ml and stored at -80° C.
Assays are performed in duplicate in a final volume of 250 µl. Initially, 5 µl of DMSO vehicle or drug in DMSO are added to 20 µl of 0.1 M Tris-HCl buffer, pH 7.4 containing 10 mM EDTA in wells of a 96-deepwell polypropylene titre plate. 200 µl of the microsomal preparation are then added and pre-incubated for 15 min at room temperature before addition of 25 µl of […] arachidonic acid in […] Tris-HCl and 10 mM EDTA, pH 7.4. Samples are incubated for 40 min at room temperature and the reaction is stopped by the addition of 25 µl of 1 N HCl. Samples are neutralized with 25 µl of 1 N NaOH prior to quantitation of PGE2 content by radioimmunoassay (Dupont-NEN or Amersham assay kits). Cyclooxygenase activity is defined as the difference between PGE2 levels in samples incubated in the presence of arachidonic acid and ethanol vehicle.
as §1

COX-1 [4] = target: T2, COX-1; experiment: Human whole blood assay, COX-1 (clotting-induced TxB2 production); assay type: cell-based; parameters: endogenous in cells; host or cells: platelets in fresh human whole blood left to clot; conditions: 1 hour at 37°C, read-out: COX-1 (IC50 µM) HWB
Description: as §2, with “Human whole blood provides a protein and cell-rich milieu appropriate for the study of biochemical efficacy of anti-inflammatory compounds such as selective COX-2 inhibitors. […] This is consistent with the observation that COX-2 inhibitors have no effect on PGE2 production in normal blood. These inhibitors are active only after incubation of human whole blood with LPS, which induces COX-2. This assay can be used to evaluate the inhibitory effect of selective COX-2 inhibitors on PGE2 production. As” for “As”
Fresh blood is collected into vacutainers containing no anticoagulants. Aliquots of 500µL are immediately transferred to siliconized microcentrifuge tubes preloaded with 2µL of either DMSO or a test compound at final concentrations varying from 10nM to 30µM. […]

| Structure (SMILES) | IC50 (COX-2 [1]) [µM] | IC50 (COX-2 [2]) [µM] | IC50 (COX-1 [3]) [µM] | IC50 (COX-1 [4]) [µM] |
| --- | --- | --- | --- | --- |
| CS(=O)(=O)c1ccc(-c2cnn(Cc3ccc(F)cc3)c(=O)c2-c2ccccc2)cc1 [Example 10, 2-(4-Fluorobenzyl)-5-(4-methylsulfonyl)phenyl-4-phenyl-2H-pyridazin-3-one] | 0.17 | 0.9 | > 10 |  |
| CC(C)n1ncc(-c2ccc(S(C)(=O)=O)cc2)c(-c2ccccc2)c1=O [Example 6, 2-Isopropyl-5-(4-methylsulfonyl)phenyl-4-phenyl-2H-pyridazin-3-one] | 0.6 | 2.6 | > 10 |  |
| CS(=O)(=O)c1ccc(-c2cnn(Cc3ccccc3)c(=O)c2-c2ccc(F)c(F)c2)cc1 [Example 9, 2-Benzyl-4-(3,4-difluorophenyl)-5-(4-methylsulfonyl)phenyl-2H-pyridazin-3-one] | 0.04 | 1.9 | 3 to 10 |  |
| CS(=O)(=O)c1ccc(-c2cnn(Cc3ccccc3)c(=O)c2-c2ccc(F)cc2)cc1 [Example 12, 2-Benzyl-4-(4-fluorophenyl)-5-(4-methylsulfonyl)phenyl-2H-pyridazin-3-one] |  |  | 3 to 10 |  |
| CS(=O)(=O)c1ccc(-c2cnn(CC3CC3)c(=O)c2-c2ccc(F)c(F)c2)cc1 [Example 7, 2-Cyclopropylmethyl-4-(3,4-difluorophenyl)-5-(4-methylsulfonyl)phenyl-2H-pyridazin-3-one] | 0.16 | 3.2 | > 10 |  |
| CS(=O)(=O)c1ccc(-c2cnn(Cc3ccccn3)c(=O)c2-c2ccccc2)cc1 [Example 8, 5-(4-Methylsulfonyl)phenyl-4-phenyl-2-(2-pyridylmethyl)-2H-pyridazin-3-one] | ~2 | > 33 | > 10 |  |
| CS(=O)(=O)c1ccc(-c2cnn(-c3ccccc3)c(=O)c2-c2ccccc2)cc1 [Example 1, 5-(4-Methylsulfonyl)phenyl-2-phenyl-4-phenyl-2H-pyridazin-3-one] | 0.08 | 4.7 |  |  |
| CS(=O)(=O)c1ccc(-c2cnn(CC(F)(F)F)c(=O)c2-c2ccccc2)cc1 [Example 4, 5-(4-Methylsulfonyl)phenyl-4-phenyl-2-(2,2,2-trifluoroethyl)-2H-pyridazin-3-one] | 0.5 | 11.1 | > 10 |  |
| CS(=O)(=O)c1ccc(-c2cnn(CC3CC3)c(=O)c2-c2ccccc2)cc1 [Example 3, 2-Cyclopropylmethyl-5-(4-methylsulfonyl)phenyl-4-phenyl-2H-pyridazin-3-one] | 0.07 | 1.3 | > 10 |  |
| CS(=O)(=O)c1ccc(-c2cnn(Cc3ccccc3)c(=O)c2-c2ccccc2)cc1 [Example 5, 2-Benzyl-5-(4-methylsulfonyl)phenyl-4-phenyl-2H-pyridazin-3-one] |  |  | > 10 | > 50 |
| Cn1ncc(-c2ccc(S(C)(=O)=O)cc2)c(-c2ccccc2)c1=O [Example 2, 2-Methyl-5-(4-methylsulfonyl)phenyl-4-phenyl-2H-pyridazin-3-one] | 0.7 | 21 |  |  |
| COC(=O)Cn1ncc(-c2ccc(S(C)(=O)=O)cc2)c(-c2ccccc2)c1=O [Example 11, 2-Carbomethoxymethyl-5-(4-methylsulfonyl)phenyl-4-phenyl-2H-pyridazin-3-one] | 5 | 9.2 | > 10 |  |
